Experimental findings from PMC12406652 (Antimicrobial Agents and Chemotherapy, 2025) are described below.

SMILES strings stand for the structures.

For data set [1] the following is noted: human, in vivo; for AUCinf, geometric LS mean, Reference / Cmax, geometric LS mean, Reference: 400 mg.
The conditions of data set [2]: human, in vivo.
The conditions of data set [3]: in vivo.

As to `Nc1nc(/C(=C/CC(=O)O)C(=O)N[C@@H]2C(=O)N3C(C(=O)O)=CCS[C@H]23)cs1` (relative stereo) [Cis-ceftibuten, cis-ceftibuten], in data set [1], the “AUCinf, geometric LS mean, Test” value was 79030 ng·h/mL; the “Cmax, geometric LS mean, Test” value amounted to 15410 ng/mL; the “AUCinf, geometric LS mean, Reference” value is 90090 ng·h/mL; the “Cmax, geometric LS mean, Reference” value stood at 17560 ng/mL. In addition, in data set [2], the “Change in geometric mean AUCtau from the first to the last dose” value is listed as 44-52%. For the same molecule, the “Fe0-8 recovered in urine, of the last dose” value in data set [3] is reported as 50-68%.

On to `Nc1nc(/C(=C\CC(=O)O)C(=O)N[C@@H]2C(=O)N3C(C(=O)O)=CCS[C@H]23)cs1` (relative stereo) [Trans-ceftibuten, trans-ceftibuten], for which, in data set [1], the “AUCinf, geometric LS mean, Test” value was 8946 ng·h/mL; the “Cmax, geometric LS mean, Test” value amounted to 1319 ng/mL; the “AUCinf, geometric LS mean, Reference” value was determined as 10400 ng·h/mL; the “Cmax, geometric LS mean, Reference” value is 1552 ng/mL. Moreover, in data set [2], the “Change in geometric mean AUCtau from the first to the last dose” value is listed as 64-75%. For the same molecule, in data set [3], the “Fe0-8 recovered in urine, of the last dose” value was 20-23%.
